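Briefly, cells in 96-well plates were exposed to five compound concentrations for 48 h, and endpoints were estimated by linear interpolation. Here, GI50 denotes the concentration required for 50% inhibition of growth.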 Active and inactive are the calls of the source. No stated cut-off is given here; in the data, active = GI50 up to about 1.1 µM and inactive = higher.
Assays:
Experiment in all cases: NCI-60 cell line screen, 48 h
HOP-62 = system: HOP-62
HOP-92 = system: HOP-92
NCI/ADR-RES = system: NCI/ADR-RES
LOX IMVI = system: LOX IMVI
COLO 205 = system: COLO 205
ACHN = system: ACHN
TK-10 = system: TK-10
KM12 = system: KM12
U-251 = system: U-251
HT-29 = system: HT-29
Hs-578T = system: Hs-578T
OVCAR-4 = system: OVCAR-4
MDA-MB-231 = system: MDA-MB-231
SW-620 = system: SW-620
SNB-75 = system: SNB-75
SF-268 = system: SF-268
UACC-257 = system: UACC-257
M14 = system: M14
SK-OV-3 = system: SK-OV-3
A498 = system: A498

Measured: GI50

CCOC(=O)CCCn1nnc(C(=O)OCC)c1C(=O)OCC
inactive: HOP-62 > 100 µM | HOP-92 > 100 µM | NCI/ADR-RES > 100 µM | LOX IMVI > 100 µM | COLO 205 > 100 µM | ACHN > 100 µM | TK-10 > 100 µM | KM12 > 100 µM | U-251 > 100 µM | HT-29 > 100 µM | Hs-578T > 100 µM | OVCAR-4 > 100 µM | MDA-MB-231 > 100 µM | SW-620 > 100 µM | SNB-75 > 100 µM | SF-268 > 100 µM | UACC-257 > 100 µM

[N-]=[N+]=Nc1cc(=O)[nH]c2ccccc12
inactive: HOP-62 > 100 µM | HOP-92 85.3 µM | NCI/ADR-RES > 100 µM | COLO 205 > 100 µM | ACHN > 100 µM | TK-10 53 µM | KM12 > 100 µM | U-251 > 100 µM | HT-29 > 100 µM | M14 > 100 µM | SK-OV-3 85.3 µM | Hs-578T 44.3 µM | OVCAR-4 > 100 µM | MDA-MB-231 > 100 µM | SW-620 > 100 µM | SNB-75 32.3 µM | SF-268 > 100 µM | UACC-257 > 100 µM

CC(C)=C[C@H]1CCC2(OCCO2)[C@]1(C)COCc1ccccc1
inactive: NCI/ADR-RES 36.8 µM | LOX IMVI 17.2 µM | COLO 205 17.6 µM | ACHN 34.4 µM | TK-10 40.7 µM | KM12 33.7 µM | A498 23.7 µM | M14 33.3 µM | SK-OV-3 32.4 µM | OVCAR-4 33.8 µM | MDA-MB-231 19.7 µM | SW-620 29.1 µM | SNB-75 45.4 µM | SF-268 48.9 µM | UACC-257 16.4 µM

S=C1CSc2c(cnc3ccccc23)N1
inactive: HOP-62 > 100 µM | NCI/ADR-RES > 100 µM | LOX IMVI > 100 µM | COLO 205 > 100 µM | ACHN > 100 µM | TK-10 35.1 µM | KM12 > 100 µM | U-251 > 100 µM | HT-29 > 100 µM | M14 > 100 µM | SK-OV-3 > 100 µM | Hs-578T 20 µM | OVCAR-4 > 100 µM | MDA-MB-231 > 100 µM | SNB-75 56.8 µM | SF-268 > 100 µM | UACC-257 > 100 µM

O=C1CCCCC1=C(I)I
inactive: HOP-62 28.7 µM | HOP-92 15.4 µM | COLO 205 15.3 µM | ACHN 17.6 µM | KM12 15.5 µM | U-251 16.3 µM | A498 20.5 µM | M14 18 µM | SK-OV-3 22.6 µM | Hs-578T 63 µM | OVCAR-4 12.1 µM | SW-620 17.4 µM | SNB-75 18.5 µM | SF-268 19.4 µM

O=C1NCCS(=O)(=O)N2CCC[C@@H]12
inactive: HOP-62 > 100 µM | HOP-92 > 100 µM | LOX IMVI > 100 µM | COLO 205 > 100 µM | ACHN > 100 µM | TK-10 > 100 µM | KM12 > 100 µM | U-251 > 100 µM | HT-29 > 100 µM | A498 > 100 µM | M14 > 100 µM | SK-OV-3 > 100 µM | OVCAR-4 > 100 µM | SW-620 > 100 µM | SNB-75 > 100 µM | SF-268 > 100 µM | UACC-257 > 100 µM

C(=C\c1cc(CCc2nc3ccccc3[nH]2)n[nH]1)/c1ccccc1
inactive: HOP-62 > 100 µM | HOP-92 > 100 µM | LOX IMVI > 100 µM | COLO 205 > 100 µM | ACHN > 100 µM | TK-10 > 100 µM | KM12 > 100 µM | U-251 > 100 µM | HT-29 > 100 µM | A498 > 100 µM | M14 > 100 µM | SK-OV-3 > 100 µM | OVCAR-4 > 100 µM | SW-620 > 100 µM | SNB-75 > 100 µM | SF-268 > 100 µM | UACC-257 > 100 µM

O=S(=O)(O)c1cc(/N=N/c2cccc3ccccc23)c(O)c2ncccc12
inactive: HOP-62 > 100 µM | HOP-92 > 100 µM | NCI/ADR-RES 65.2 µM | LOX IMVI 60.8 µM | COLO 205 33.4 µM | ACHN 44 µM | TK-10 > 100 µM | KM12 80.2 µM | U-251 42 µM | HT-29 24.8 µM | A498 31.8 µM | M14 47.8 µM | SK-OV-3 > 100 µM | OVCAR-4 46 µM | MDA-MB-231 > 100 µM | SW-620 59.8 µM | SNB-75 60.3 µM | UACC-257 64.4 µM
